Measured values published in patent publication US9192617B2, “Pharmaceutical composition, methods for treating and uses thereof” (Boehringer Ingelheim International GmbH, priority 2012, dated 2015).
“Also recorded” adds a separate entry of the source.

Legend:
Type in all cases: in vivo, Female Wistar rats
[1] = Body weight in diet-induced obese (DIO) rats, chronic oral dosing; settings: Day 29, FIG. 1
Method: Female Wistar rats (weight range 250-300 g upon arrival) are obtained from Charles River (Margate, Kent) and housed in pairs or threes at a temperature of 21±4° C. and 55±20% humidity. Animals are maintained on a reverse phase light-dark cycle (lights off for 8 h from 09.30-17.30 h) during which time the room is illuminated by red light. Animals have free access to powdered high fat diet (VRF1 plus 20% lard; Special Diet Services (SDS), Witham, UK), ground chocolate (Cadbury's Dairy Milk®), ground peanuts (Big D®, Trigon Snacks Ltd.) and tap water at all times unless specified otherwise. Animals are housed for 20-24 weeks for the induction of obesity. The work reported in this manuscript is performed in accordance with UK law as detailed in the Animals (Scientific Procedures) Act 1986.
Approximately two weeks before the start of the studies, animals are housed singly in polypropylene cages with wire grid floors (so food spillage could be determined). Each cage contains an appropriate amount of paper bedding for warmth, environmental enrichment and to provide an area for animals to get off the wire grid floor. […]
Statistical analysis is performed by a Statistician. Body weight and food and water intake data are assessed by analysis of covariance (ANCOVA) with treatment as a factor, and baseline data as the covariate. […]

[2] = Oral glucose (2 g/kg) tolerance test on Day 30 in DIO rats; settings: for glucose tolerance (glucose AUC): OGTT 2 g/kg after 30 days of treatment, vs vehicle, FIG. 2a; for AUC of insulin during OGTT: OGTT Day 30, FIG. 2b
Method: (§1) In combination studies, sibutramine is dosed once daily with empagliflozin. Orlistat is dosed twice daily: once at the start of the dark phase (in combination with empagliflozin) and again four hours later. Blood samples are taken after approximately 2 and 4 weeks of dosing after a 4 h fast, with the exception of the combination studies with sibutramine and orlistat where samples are taken after an overnight fast. In the studies where empagliflozin is given with either orlistat or sibutramine, animals undergo an oral glucose (2 g/kg) tolerance test on Day 30 after an overnight fast. Blood samples are taken immediately before and 10, 20, 30, 60 and 120 minutes post glucose administration. At the conclusion of each experiment, carcasses are saved for body composition analysis.
(§2) Blood is collected in EDTA-coated collection tubes (Sarstedt) and immediately spun in a cooled centrifuge and the plasma stored frozen. Subsequently, plasma is assayed for content of one or more of the following: glucose, insulin, leptin, glycerol, and triacylglycerol (TAG) content. Blood (collected in an EDTA tube and frozen immediately) is assayed for HbA1c.
(§3) Commercially available enzyme-linked immunosorbent assays (ELISAs) and colorimetric kits are used to assay glucose (Thermo Electron Corp., PA, USA), insulin (Mercodia, Uppsala, Sweden), glycerol and true triglycerides (Sigma, Mo., USA), and leptin (Assay Designs, MI, USA). HbA1c is assayed by a direct enzymatic assay (Diazyme, CA, USA).
(§4) Plasma data are analysed by a general linear model with treatment as a factor. Where appropriate, data undergo a log transformation prior to analysis. Baseline plasma data and Day 1 body weight are included as covariates. HbA1c data are analysed by a robust regression model using M estimation (Huber weighting, using the default parameter c=1.345). Baseline HbA1c levels and Day 1 body weight are included as covariates. Since no differences are observed between the two and four week changes in plasma parameters, only the final plasma data for each study is detailed.

[3] = Plasma metabolic parameters on Day 30 in DIO rats; settings: FIG. 3a; for plasma leptin: Day 30, overnight fast; for plasma glucose / plasma insulin: after 30 days of treatment, vs vehicle
Method: as §1, §2, §3, §4

[4] = Carcass body composition (FoodScan NIR) of DIO rats at study conclusion; settings: FIG. 3b
Method: Carcass composition (body fat, protein and water) is determined using the FoodScan NIR (near infra-red) meat analyser (Foss, UK). Carcasses are milled at the temperature of liquid nitrogen and stored at −20° C. in sealed containers.
Carcass composition data are analysed by robust regression with treatment as factors. Day 1 body weight is included as a covariate.

| SMILES | weight loss compared with vehicle-treated controls [1] | glucose tolerance (glucose AUC) [2] | AUC of insulin during OGTT [2] | plasma leptin [3] | carcass fat / body fat [4] | plasma glucose [3] | plasma insulin [3] | glucose tolerance (glucose AUC) ([2]; listed as Empagliflozin) | body composition [4] |
| --- | --- | --- | --- | --- | --- | --- | --- | --- | --- |
| CCCCCCCCCCC[C@@H](C[C@@H]1OC(=O)[C@H]1CCCCCC)OC(=O)[C@H](CC(C)C)NC=O [orlistat] | 2.4% | does not significantly affect glucose tolerance | not significantly decreased | reduce plasma leptin | significantly and selectively reduce carcass fat | – | – | – | – |
| CC(C)CC(N(C)C)C1(c2ccc(Cl)cc2)CCC1 (stereo not drawn) [sibutramine] | 7.0% | significantly improve glucose tolerance | significant reductions in the glucose and insulin AUC | reduce plasma leptin | significantly and selectively reduce carcass fat | significantly reduces plasma glucose | significantly reduce plasma insulin; also recorded: reduces plasma insulin | – | – |
| OC[C@H]1O[C@@H](c2ccc(Cl)c(Cc3ccc(O[C@H]4CCOC4)cc3)c2)[C@H](O)[C@@H](O)[C@@H]1O [empagliflozin, 1-chloro-4-(β-D-glucopyranos-1-yl)-2-[4-((S)-tetrahydrofuran-3-yloxy)-benzyl]-benzene] | – | improve glucose tolerance | reduced significantly; also recorded: significant reductions in the glucose and insulin AUC | – | – | significantly reduces plasma glucose | significantly reduce plasma insulin; also recorded: either a small effect to reduce plasma insulin or no impact | significantly improve glucose tolerance | does not significantly affect body composition |
